According to patent US6624203B1, “Nucleic acid bases used in ophthalmic solutions” (priority 2001, dated 2003):

Experiments:
[1] = test system: C. albicans; experiment: In vitro microbicidal activity against C. albicans (log reduction vs inoculum control); type: cell-based; details: 0.2% phosphate buffer, isotonic NaCl, PHMB 0.0001%, pH 7.2
Procedure: A formulation containing guanine was prepared in a 0.2% phosphate buffer. The solution was made isotonic with sodium chloride and preserved with polyhexamethylene biquanide at 0.0001%. The pH was adjusted to 7.2 with either 1 N sodium hydroxide or 1 N hydrochloric acid. The in vitro microbicidal activity of the test and control solution was determined by exposing C. albicans to 10 ml of each solution at room temperature for 4 and 24 hours. Subsequently, an aliquot of each solution was serial diluted onto agar plates and incubated for 48 hours at elevated temperatures. At the conclusion of the incubation period the plates are examined for the development of colonies. The log reduction was determined based on a comparison to the inoculum control. The following table provides the results of the in vitro studies.

[2] = test system: Acanthamoeba castellanii cysts; experiment: In vitro anti-acanthamoeba activity (serial dilution, viable trophozoites, log reduction); type: cell-based; details: 0.5% guanine with PHMB 0.02% versus control without guanine
Procedure: A formulation containing 0.5% guanine was prepared in a 0.2% glycine buffer at pH 7.35. The solution was preserved with polyhexamethylene biquanide at 0.02%. A similar control was prepared except without the guanine. The in vitro anti-acanthamoeba activity of the test and control solutions was determined by exposing Acanthamoeba castellanii cysts to 2 ml of each solution at room temperature for 10 minutes. Subsequently, an aliquot of each solution was serial diluted in duplicate and incubated for 14 days. At the conclusion of the incubation period, the dilutions were examined for viable Acanthamoeba trophozoites. The log reduction was determined based on a comparison to the inoculum control. A negative control was performed to verify the technique. The following table provides the results of the in vitro studies.

## Nc1nc2nc[nH]c2c(=O)[nH]1 [Guanine, guanine]
[1]; C. albicans exposed to 10 ml solution at room temperature for 4 hours
  log reduction, 4 hours: 0.97
[1]; C. albicans exposed to 10 ml solution at room temperature for 24 hours
  log reduction, 24 hours: 3.05
[2]
  Effect of guanine on activity of preserved formulations against Acanthamoeba: improves the activity of preserved formulations against Acanthamoeba
